Results from US10662193B2, “Carbazole and carboline compounds for use in the diagnosis, treatment, alleviation or prevention of disorders associated with amyloid or amyloid-like proteins” (AC IMMUNE SA, priority 2014, dated 2020).

Assays:
[1] = tested on: tau tangles/Aβ plaques on AD brain sections; assay: Assay 1: direct staining of human Alzheimer's disease brain sections (fluorescence); type: binding; conditions: 100 μM; FIG. 1
Procedure, shortened: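 Frozen […] amygdala sections from Braak V-VI AD donors, PFA-fixed, incubated with compound at 100 μM in 50% ethanol for 20 min at room temperature in the dark. Sudan Black quenched autofluorescence, then staining detected by fluorescence microscopy.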

[2] = biological target: T1, in vitro aggregated Abeta1-42 (Homo sapiens, UniProt P05067); assay: Assay 2 (filter trap): [3H]RefA radio-binding assay, Kd on aggregated Abeta1-42; conditions: Table 23; aggregated Abeta1-42 versus AD brain-enriched PHF
T1 construct: Abeta1-42 (Bachem, Switzerland) peptide films were re-suspended in 1% DMSO; purchased Bachem, Switzerland
Procedure: Preparation of Full-Length Tau and Abeta1-42 Aggregates
Recombinant human full-length Tau441 (flTau) was expressed in bacteria and purified in the laboratory of Professor Hilal Lashuel (EPFL, Switzerland). A solution of 8 μM (400 μg/mL) flTau in PBS, 10 μM DTT and 5 μM heparin (all from Sigma-Aldrich) was gently mixed (cradled) for 3 days at 37° C. Cradled flTau aggregates were used at a final concentration of 20 μg/mL in all binding assays. Abeta1-42 (Bachem, Switzerland) peptide films were re-suspended in 1% DMSO and diluted in PBS to a 33 μM (150 μg/mL) suspension that was sonicated until complete dissolution. Aggregation process was done at 37° C. for 24 hours. […]
AD brain-enriched PHF were diluted 1/80 (with an estimated tau concentration of 62.5 ng/ml and incubated with [^3H]RefA at different concentrations ranging from 50 nM to 1.25 nM. The reaction was performed in a final volume of 70 μL PBS with 2.8% DMSO, for 45 min at 37° C. 30 μL of samples in duplicates were then filtered under vacuum on a GF/B filter plate (PerkinElmer 6005177) to trap the PHF with the bound radio-ligand, and washed three times with PBS. The GF/B filters were then vacuum-dried, 20 μL scintillation liquid (PerkinElmer 1200-436) was added in each well, and the filters were analyzed on a Microbeta Trilux device. […] Specific binding was calculated by subtracting the non-specific signal to the total signal. […]

AD brain-enriched PHF = AD brain-enriched PHF (Homo sapiens, UniProt P10636); assay: Assay 2 (filter trap): radio-binding assay, determination of the dissociation constant (Kd) on PHF; conditions: tritiated ligand 1.25-50 nM, PHF diluted 1/80, 45 min 37° C.
Procedure: Enrichment of Paired Helical Filaments (PHF's) from Human Alzheimer's Disease Brain
50 g of frontal lobe tissue from post-mortem brain of an Alzheimer's disease (AD) patient were obtained from the London Tissue Bank. The patient was a […] and died […]. The brain sample was collected 5 hours post-mortem and characterized for Braak disease stage (Braak, H.; Braak, E. Acta Neuropathol., 1991, 82, 239-259) as stage VI. […]
AD brain-enriched PHF were diluted 1/80 (with an estimated tau concentration of 62.5 ng/ml and incubated with [^3H]RefA at different concentrations ranging from 50 nM to 1.25 nM. The reaction was performed in a final volume of 70 μL PBS with 2.8% DMSO, for 45 min at 37° C. 30 μL of samples in duplicates were then filtered under vacuum on a GF/B filter plate (PerkinElmer 6005177) to trap the PHF with the bound radio-ligand, and washed three times with PBS. The GF/B filters were then vacuum-dried, 20 μL scintillation liquid (PerkinElmer 1200-436) was added in each well, and the filters were analyzed on a Microbeta Trilux device. […] Specific binding was calculated by subtracting the non-specific signal to the total signal. […] The Kd values were calculated by nonlinear regression, one site specific binding using Prism V5 (GraphPad). […]

AD brain-enriched PHF, sequence (P10636 623-708 limits assumed): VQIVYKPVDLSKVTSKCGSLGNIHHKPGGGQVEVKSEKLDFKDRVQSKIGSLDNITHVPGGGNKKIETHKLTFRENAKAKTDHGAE
T1 sequence (P05067 672-713 limits assumed): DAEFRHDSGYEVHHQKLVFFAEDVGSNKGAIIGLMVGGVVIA

Fold increase on Abeta1-42 vs PHF [2]: 5
Kd (AD brain-enriched PHF): 35 nM
SMILES: CNc1ccc(-c2ccc3ccc(O)cc3n2)cc1 [RefA]
direct staining of tau tangles on AD brain section [1]: direct staining of tau tangles
